The record followed here is patent US20020169101A1, “Treatment of sexual dysfunction” (priority 1999, published 2002).

“Also recorded” adds a separate entry of the source.

The test system of experiment [1] is female genital blood flow. Nature of the experiment: Female genital blood flow in the anaesthetised rabbit model of sexual arousal (pelvic nerve stimulation). The experiment is classed as in vivo. Particulars: 15 mg/kg sc; for basal genital blood flow in the absence of PNS / pelvic-nerve stimulated (PNS) increases in genital (vaginal and clitoral) blood flow: anaesthetised female rabbit (FIGS. 22, 23). The procedure: Female New Zealand rabbits (˜2.5kg) were pre-medicated with a combination of Medetomidine (Domitor®) 0.5 ml/kg i.m., and Ketamine (Vetalar®) 0.25 ml/kg im. whilst maintaining oxygen intake via a face mask. The rabbits were tracheotomised using a PortexTM uncuffed endotracheal tube 3 ID., connected to ventilator and maintained at a ventilation rate of 30-40 breaths per minute, with an approximate tidal volume of 18-20 ml, and a maximum airway pressure of 10 cm H2O. Anaesthesia was then switched to Isoflurane and ventilation continued with O2 at 21/min. The right marginal ear vein was cannulated using a 23G or 24G catheter, and Lactated Ringer solution perfused at 0.5 ml/min. The rabbit was maintained at 3% Isoflurane during invasive surgery, dropping to 2% for maintenance anaesthesia.
The left groin area of the rabbit was shaved and a vertical incision was made approximately 5 cm in length along the thigh. The femoral vein and artery were exposed, isolated and then cannulated with a PVC catheter (17G) for the infusion of drugs and compounds. Cannulation was repeated for the femoral artery, inserting the catheter to a depth of 10 cm to ensure that the catheter reached the abdominal aorta. This arterial catheter was linked to a Gould system to record blood pressure. Samples for blood gas analysis were also taken via the arterial catheter. Systolic and diastolic pressures were measured, and the mean arterial pressure calculated using the formula (diastolic x2 +systolic)÷3. Heart rate was measured via the pulse oxymeter and Po-ne-mah data acquisition software system (Ponemah Physiology Platform, Gould Instrument Systems Inc). A ventral midline incision was made into the abdominal cavity. The incision was about 5 cm in length just above the pubis. The fat and muscle was bluntly dissected away to reveal the hypogastric nerve which runs down the body cavity. It was essential to keep close to the side curve of the pubis wall in order to avoid damaging the femoral vein and artery which lie above the pubis. The sciatic and pelvic nerves lie deeper and were located after further dissection on the dorsal side of the rabbit. Once the sciatic nerve is identified, the pelvic nerve was easily located. The term pelvic nerve is loosely applied; anatomy books on the subject fail to identify the nerves in sufficient detail. However, stimulation of the nerve causes an increase in vaginal and clitoral blood flow, and innervation of the pelvic region. The pelvic nerve was freed away from surrounding tissue and a Harvard bipolar stimulating electrode was placed around the nerve. The nerve was slightly lifted to give some tension, then the electrode was secured in position. Approximately 1 ml of light paraffin oil was placed around the nerve and electrode. This acts as a protective lubricant to the nerve and prevents blood contamination of the electrode. The electrode was connected to a Grass S88 Stimulator. The pelvic nerve was stimulated using the following parameters:-5V, pulse width 0.5 ms, duration of stimulus 10 seconds and a frequency range of 2 to 16 Hz. Reproducible responses were obtained when the nerve was stimulated every 15-20 minutes. A frequency response curve was determined at the start of each experiment in order to determine the optimum frequency to use as a sub-maximal response, normally 4 Hz. A ventral midline incision was made, at the caudal end of the pubis, to expose the pubic area. Connective tissue was removed to expose the tunica of the clitoris, ensuring that the wall was free from small blood vessels. The external vaginal wall was also exposed by removing any connective tissue. One laser Doppler flow probe was inserted 3 cm into the vagina, so that half the probe shaft was still visible. A second probe was positioned so that it lay just above the external clitoral wall. The position of these probes was then adjusted until a signal was obtained. A second probe was placed just above the surface of a blood vessel on the external vaginal wall. […]

The subject of experiment [2] is penile intracavernosal pressure. Nature of the experiment: Penile intracavernosal pressure in the conscious male rat (telemetry). The experiment is classed as in vivo. Particulars: Compound 1 10 mg/kg sc, one hour after, Compound 3 15 mg/kg sc, 45 minutes after, conscious male rat (FIGS. 24, 25). The procedure:
In addition to treating women with FSD, bombesin antagonists will be useful in treating male erectile dysfunction (MED. Both the non-selective BB1/2 antagonists (Compound 1; 10 mg/kg sc) and the selective BB1 receptor antagonist (Compound 3; 15 mg/kg sc) is pro-erectile in a conscious rat model of penile erection (FIGS. 24 and 25). Erectile responses were recorded by measuring intracavemosal pressure using surgically implanted telemetric device. The specific details the surgical procedures, data acquisition and analysis can be found in detail in Bernabe 1999.
Compound 1 and compound 3 were dissolved in 50% β-cyclodextrin in saline. They were administered at a dose of […] subcutaneously (sc). […] These increases equate to penile erection. Both Compounds 1 and 3 induced a number of erections in a similar manner to those observed with apomorphine or melanotan-II—both of which are clinically proven agents that are effective in the treatment of MED. Moreover the amplitude of the increases observed were similar to those observed with apomorphine or melanotan-II. The mechanism of action is thought to be similar to the effects on female genital flow ie CNS potentiation of the descending neuronal pathways that control penile erection.

For `COc1ccc(C2(CNC(=O)[C@](C)(Cc3c[nH]c4ccccc34)NC(=O)Nc3ccc([N+](=O)[O-])cc3)CCCCC2)nc1` [Compound (1), (S) 3-(1H-Indol-3-yl)-N-[1-(5-methoxy-pyridin-2-yl)-cyclohexyl-methyl]-2-methyl-2-[3-(4-nitro-phenyl)-ureido]-propionamide], in experiment [1], the “basal genital blood flow in the absence of PNS” value is “no effect on basal genital blood flow”; the “pelvic-nerve stimulated (PNS) increases in genital (vaginal and clitoral) blood flow” value is “potent enhancer of pelvic-nerve stimulated (PNS) increases in genital blood flow”. The “penile intracavernosal pressure / erection” value in experiment [2] is reported as “pro-erectile; also recorded: significant increases in intracavernosal pressure”.
As to `C[C@@](Cc1c[nH]c2ccccc12)(NC(=O)Nc1ccc([N+](=O)[O-])cc1)C(=O)NCC1(c2ccc(N)cc2)CCCCC1` [Compound 3, (2S)-N-{[1-(4-aminophenyl)cyclohexyl]methyl}-3-(1H-indol-3-yl)-2-methyl-2-{[(4-nitroanilino)-carbonyl]amino}propanamide], in experiment [1], the “time after sc dosing at which potentiation was significant” value was 45 min; the “time potentiation remained elevated” value was “circa 1 hr”; the “basal genital blood flow in the absence of PNS” value is “no effect on basal genital blood flow”; the “pelvic-nerve stimulated (PNS) increases in genital (vaginal and clitoral) blood flow” value is “potent enhancer of pelvic-nerve stimulated (PNS) increases in vaginal and clitoral blood flow”. For the same compound, the “penile intracavernosal pressure / erection” value in experiment [2] is recorded as “pro-erectile”. For the same compound, the “penile intracavernosal pressure / erection” value in experiment [2] (listed as compound 3) is “significant increases in intracavernosal pressure”.
